# Experimental data taken from ChEMBL document CHEMBL2384932, “Radiosynthesis and evaluation of [11C]EMPA as a potential PET tracer for orexin 2 receptors” (Bioorg Med Chem Lett, 2013).
# Experiments:
# [1] = Ratio of drug level in brain to plasma of ip dosed mouse after 45 mins; type: ADME, organism-based; conditions: read-out: BPR
# [2] = test system: Brain; experiment: Drug uptake in Sprague-Dawley rat brain at 1.0 to 1.2 mCi, iv after 60 mins by PET-CT scan in presence of non radiolabeled ligand EMPA; type: ADME, organism-based; conditions: in vivo, 1 h
# [3] = Drug uptake in baboon blood at 4.49 mCi by PET-MR imaging analysis; type: ADME; conditions: papio anubis
# [4] = Fraction unbound in baboon plasma after 10 mins; type: ADME, cell-free; conditions: papio anubis
# [5] = test system: Brain; experiment: Drug uptake in baboon brain at 4.49 mCi after 80 mins by PET-MR imaging analysis; type: ADME; conditions: papio anubis, in vivo
# [6] = test system: Kidney; experiment: Drug uptake in Sprague-Dawley rat kidney at 1.0 to 1.2 mCi, iv after 90 mins by PET-CT scan in presence of non radiolabeled ligand EMPA; type: ADME, organism-based; conditions: in vivo, 1.5 h
# [7] = test system: Liver; experiment: Drug uptake in Sprague-Dawley rat liver at 1.0 to 1.2 mCi, iv after 90 mins by PET-CT scan in presence of non radiolabeled ligand EMPA; type: ADME, organism-based; conditions: in vivo, 1.5 h
# [8] = Lipophilicity, log D of the compound in phosphate buffer at ph 7.4; type: physicochemical
# [9] = biological target: T1, Orexin receptor type 2 (Rattus norvegicus) (UniProt P56719); experiment: Binding affinity to rat brain OX2 receptor assessed per mg of protein
# T1 sequence (whole entry): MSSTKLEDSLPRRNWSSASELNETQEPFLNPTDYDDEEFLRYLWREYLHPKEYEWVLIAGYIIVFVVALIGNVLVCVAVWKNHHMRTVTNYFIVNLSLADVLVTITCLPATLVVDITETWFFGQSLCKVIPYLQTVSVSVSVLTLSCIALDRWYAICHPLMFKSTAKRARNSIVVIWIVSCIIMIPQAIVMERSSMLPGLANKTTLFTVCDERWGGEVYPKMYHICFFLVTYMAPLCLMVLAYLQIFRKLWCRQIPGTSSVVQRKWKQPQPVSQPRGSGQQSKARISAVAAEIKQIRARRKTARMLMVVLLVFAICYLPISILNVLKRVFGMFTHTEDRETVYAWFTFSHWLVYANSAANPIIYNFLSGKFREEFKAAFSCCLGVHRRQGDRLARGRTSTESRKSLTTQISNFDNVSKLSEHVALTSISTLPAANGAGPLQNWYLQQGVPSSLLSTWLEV
compound,measurement,setting,value
[3H]c1ccc(CN(CC)C(=O)CN(c2ccc(OC([3H])([3H])[3H])nc2)S(=O)(=O)c2ccccc2C)cn1,Kp at 0.75 h,[1],0.7
CCN(Cc1cccnc1)C(=O)CN(c1ccc(O[11CH3])nc1)S(=O)(=O)c1ccccc1C,Drug uptake,[2],< 0.1%
same,Drug uptake,[3],Active
same,fraction unbound at 10 min,[4],0.113
same,Drug uptake,[5],< 0.01%
same,Drug uptake,[6],Active
same,Drug uptake,[7],Active
same,logD,[8],1.94
CCN(Cc1cccnc1)C(=O)CN(c1ccc(OC)nc1)S(=O)(=O)c1ccccc1C,Bmax,[9],6.62 pmol
